Laboratory results from patent publication US11332470B2, “CXCR4 inhibitors and uses thereof” (X4 Pharmaceuticals, Inc., priority 2016, dated 2022).

Legend:
[1] = biological target: T1, CXCR4 (Jurkat cells expressing CXCR4) (Homo sapiens, UniProt P61073); test: Chemokine (CXCL12-AF647) binding inhibition assay; details: CXCL12-AF647 25 ng/mL, read-out: IC50 CXCL-12 binding Jurkat
T1 construct: Jurkat cells expressing CXCR4; endogenous in cells; host or cells: Jurkat
Protocol: Chemokine (CXCL12-AF647) Binding Inhibition Assay
Jurkat cells expressing CXCR4 were washed once with assay buffer (Hanks' balanced salt solution with 20 mM HEPES buffer and 0.2% bovine serum albumin, pH 7.4) and then incubated for 15 min at room temperature with the test compounds diluted in assay buffer at dose-dependent concentrations. Subsequently, CXCL12-AF647 (25 ng/mL) was added to the compound-incubated cells. The cells were incubated for 30 min at room temperature. Thereafter, the cells were washed twice in assay buffer, fixed in 1% paraformaldehyde in PBS, and analyzed on the FL4 channel of a FACSCalibur flow cytometer equipped with a 635-nm red diode laser (Becton Dickinson, San Jose, Calif., USA).
The percentages of inhibition of CXCL12-AF647 binding were calculated according to the formula: [1−((MFI−MFINC)/(MFIPC−MFINC))]×100 where MFI is the mean fluorescence intensity of the cells incubated with CXCL12-AF647 in the presence of the inhibitor, MFINC is the mean fluorescence intensity measured in the negative control (i.e., autofluorescence of unlabeled cells), and MFIPC is the mean fluorescence intensity of the positive control (i.e., cells exposed to CXCL12-AF647 alone).

CXCR4 (U87.CXCR4 cells) = biological target: T2, CXCR4 (U87.CXCR4 cells) (Homo sapiens, UniProt P61073); test: Intracellular CXCL-12-induced calcium mobilization assay (FLIPR); assay type: cell-based; details: CXCL-12 25-50 ng/mL, read-out: IC50 CXCL-12 Ca2+ flux U87.CXCR4+
T2 construct: expressed in transfected cells; host or cells: U87 (U87.CXCR4)
Protocol: Intracellular CXCL-12-Induced Calcium Mobilization Assay
Intracellular calcium mobilization induced by chemokines or chemokine-derived peptides were evaluated using a calcium responsive fluorescent probe and a FLIPR system. The CXCR-4 transfected U87 cell line (U87.CXCR4) cells were seeded in gelatine-coated black-wall 96-well plates at 20,000 cells per well and incubated for 12 hours. Cells were then loaded with the fluorescent calcium probe Fluo-2 acetoxymethyl at 4 μM final concentration in assay buffer (Hanks' balanced salt solution with 20 mM HEPES buffer and 0.2% bovine serum albumin, pH 7.4) for 45 min at 37° C. The intracellular calcium mobilization induced by the CXCL-12 (25-50 ng/mL) was then measured at 37° C. by monitoring the fluorescence as a function of time in all the wells simultaneously using a fluorometric imaging plate reader (FLIPR Tetra, Molecular Devices).

in vitro = details: human, Caco-2, pH 7.4
Protocol: The goal of this assay was to evaluate the intestinal absorption potential of drug candidates using Caco-2 cell lines.
1. Prewarm Prewarm HBSS Buffer in 37° C. water bath
2. Sonicate Take compounds from −20° C., sonicate for a few minutes (no less than 1 minute)
• Donor solution buffer: For A-to-B Direction: HBSS buffer with 0.3% DMSO and 5 μM LY: add 150 μL DMSO and 50 μL LY (5 mM) into 50 ml HBSS buffer (pH 7.4). HBSS buffer with 0.1% DMSO and 5 μM LY: add 50 μL DMSO and 50 μL LY (5 mM) into 50 mL HBSS buffer (pH 7.4). For B-to-A Direction: HBSS buffer with 0.3% DMSO: add 150 μL DMSO into 50 ml HBSS buffer (pH 7.4). HBSS buffer with 0.1% DMSO: add 50 μL DMSO into 50 ml HBSS buffer (pH 7.4). Receiver Solution Buffer: For A-to-B Direction: Prepare HBSS buffer with 0.4% DMSO: add 200 μL DMSO into 50 ml HBSS buffer (pH 7.4). For B-to-A Direction: Prepare HBSS buffer with 0.4% DMSO and 5 μM LY: add 200 μL DMSO and 50 μL LY (5 mM) into 50 ml HBSS buffer (pH 7.4).
4. Measure TEER Take cell culture plate out of incubator, wash the cell monolayers with HBSS buffer, and then measure TEER values at Rm temperature. 5. Centrifuge Centrifuge the compound solution (from step 3) at 4000 rpm for 5 min before loading to donor chambers. 6. Dosing Add solution based on the volumes listed in the following table (make sure to take extra 100 μL of donor sample for TO as Backup).
7. Apical LYT0 samples To determine LY concentration in the apical chamber, take 100 μL sample from apical chambers into an opaque plate for LYT0. 8. Prewarm Prewarm apical and basolateral plates at 37° C. for about 5 min, then begin transport by placing the apical plate onto basolateral plate. 9. Incubation Keep the plates in incubator at 37° C. for 90 min. 10.
Prepare Working Solution in MeOH/H2O (1:1)
• Prepare 1×solution: 3 μL (20×)+57 μL of 0.4% DMSO HBSS+60 μL ACN with IS (Osalmid or Imipramine)−120 μL (1×) 11. Transport termination Separate the apical plate from the basolateral plate after 90-min incubation. 12. Measure LY Take 100 μL samples from basolateral plate to an opaque plate as LYT90. 13. Measure LY concentrations for LYT0 and LYT90 by Fluorometer (at excitation of 485 nm/emission of 535 nm). 14.
Study details: Test concentration 10 μM
Test systems: Caco-2/HBSS solution
Incubation conditions: 0, 90 min at 37° C.
Sample size: Duplicates (n=2)
Bioanalytical method: LC-MS/MS
For Millicell-24 Cell Culture Plates: surface area of the membrane=0.7 cm^2, VA=0.8 mL (A-to-B) or 0.4 mL (B-to-A)
The compound numbers correspond to the compound numbers in Table 1.

T2 sequence (P61073 whole entry): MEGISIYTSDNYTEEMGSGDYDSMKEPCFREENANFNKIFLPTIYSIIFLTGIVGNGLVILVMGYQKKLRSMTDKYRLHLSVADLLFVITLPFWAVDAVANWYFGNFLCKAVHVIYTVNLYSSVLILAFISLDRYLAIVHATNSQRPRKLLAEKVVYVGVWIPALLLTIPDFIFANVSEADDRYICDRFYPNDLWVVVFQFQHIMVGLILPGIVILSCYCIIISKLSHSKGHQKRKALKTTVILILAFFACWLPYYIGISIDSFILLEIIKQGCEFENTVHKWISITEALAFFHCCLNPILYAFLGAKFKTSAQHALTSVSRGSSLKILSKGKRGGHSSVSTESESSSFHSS
T1 sequence (P61073 whole entry): as above

Row | Structure (SMILES) | IC50 [1] | IC50 (CXCR4 (U87.CXCR4 cells)) | Papp A→B at 90 min, 10 μM (in vitro) | Papp B→A at 90 min, 10 μM (in vitro) | efflux ratio at 90 min, 10 μM (in vitro)
1 | O=C1CN(c2c(CN3CCCC3c3ccccn3)nc3ccccn23)CCN1 (stereo not shown) [Compound I-86] | ≥ 1000 nM | ≥ 1000 nM | 0.1 to 10 ×10⁻⁶ cm/s | 10 to 30 ×10⁻⁶ cm/s | 10 to 30
2 | CN1CCN(c2cccc3nc(CN4CCCC4c4nccs4)[nH]c23)CC1 (stereo not shown) [Compound I-49] | ≥ 1000 nM | ≥ 1000 nM | 10 to 30 ×10⁻⁶ cm/s | 10 to 30 ×10⁻⁶ cm/s | 0.1 to 10
3 | Cc1cccnc1C1CCCN1Cc1nccn1CC1CCOCC1 (stereo not shown) [Compound I-110] | 100 to 1000 nM | ≥ 1000 nM | 10 to 30 ×10⁻⁶ cm/s | > 30 ×10⁻⁶ cm/s | 0.1 to 10
4 | CN1CCN(c2c(CN3CCCC3c3ncc[nH]3)nc3ccccn23)CC1 (stereo not shown) [Compound I-68] | 100 to 1000 nM | ≥ 1000 nM | 0.1 to 10 ×10⁻⁶ cm/s | 10 to 30 ×10⁻⁶ cm/s | 0.1 to 10
5 | Cc1cccnc1C1CCCN1Cc1ccccn1 (stereo not shown) [Compound I-39] | 100 to 1000 nM | ≥ 1000 nM | 10 to 30 ×10⁻⁶ cm/s | 10 to 30 ×10⁻⁶ cm/s | 0.1 to 10
6 | CN1CCN(c2c(CN3CCCC3c3ccccn3)nc3ccccn23)CC1=O (stereo not shown) [Compound I-85] | 100 to 1000 nM | ≥ 1000 nM | 0.1 to 10 ×10⁻⁶ cm/s | > 30 ×10⁻⁶ cm/s | 0.1 to 10
7 | CN1CCC(n2ccnc2CN2CCCC2c2ccccn2)CC1 (stereo not shown) [Compound I-55] | 100 to 1000 nM | ≥ 1000 nM | 0.1 to 10 ×10⁻⁶ cm/s | 10 to 30 ×10⁻⁶ cm/s | 0.1 to 10
8 | Cc1cccnc1C1CCCCN1Cc1ccccc1-n1cccn1 (stereo not shown) [Compound I-2, 2-(1-(2-(1H-pyrazol-1-yl)benzyl)piperidin-2-yl)-3-methylpyridine] | ≥ 1000 nM | ≥ 1000 nM | > 30 ×10⁻⁶ cm/s | > 30 ×10⁻⁶ cm/s | 0.1 to 10
9 | Cc1cccnc1C1CCCN1Cc1nccn1Cc1ccccn1 (stereo not shown) [Compound I-89] | 100 to 1000 nM | ≥ 1000 nM | 10 to 30 ×10⁻⁶ cm/s | > 30 ×10⁻⁶ cm/s | 0.1 to 10
10 | c1ccc(C2CCCN2Cc2ccccc2-n2cccn2)nc1 (stereo not shown) [Compound I-65] | 100 to 1000 nM | ≥ 1000 nM | > 30 ×10⁻⁶ cm/s | > 30 ×10⁻⁶ cm/s | 0.1 to 10
11 | Cc1cccnc1C1CCCN1Cc1nccn1CC1CCN(c2ccccn2)CC1 (stereo not shown) [Compound I-109] | 100 to 1000 nM | ≥ 1000 nM | > 30 ×10⁻⁶ cm/s | > 30 ×10⁻⁶ cm/s | 0.1 to 10
12 | c1ccc(N2CCN(c3c(CN4CCCC4c4ccccn4)nc4ccccn34)CC2)cc1 (stereo not shown) [Compound I-96] | 100 to 1000 nM | ≥ 1000 nM | 10 to 30 ×10⁻⁶ cm/s | 10 to 30 ×10⁻⁶ cm/s | 0.1 to 10
13 | Cc1cccnc1C1CCCN1Cc1nccn1Cc1cccnc1 (stereo not shown) [Compound I-88] | 100 to 1000 nM | ≥ 1000 nM | 10 to 30 ×10⁻⁶ cm/s | 10 to 30 ×10⁻⁶ cm/s | 0.1 to 10
14 | N#CCCc1c(CN2CCCC2c2ccccn2)nc2ccccn12 (stereo not shown) [Compound I-82] | 100 to 1000 nM | ≥ 1000 nM | 10 to 30 ×10⁻⁶ cm/s | > 30 ×10⁻⁶ cm/s | 0.1 to 10

Results, then the compound that gave them:

Row | IC50 [1] | IC50 (CXCR4 (U87.CXCR4 cells)) | Papp A→B at 90 min, 10 μM (in vitro) | Papp B→A at 90 min, 10 μM (in vitro) | efflux ratio at 90 min, 10 μM (in vitro) | Structure (SMILES)
15 | 0.01 to 100 nM | 0.01 to 100 nM | 0.1 to 10 ×10⁻⁶ cm/s | 10 to 30 ×10⁻⁶ cm/s | 0.1 to 10 | Cc1cccnc1C1CCCN1Cc1nc2cccc(N3CCN4CCCC4C3)c2[nH]1 (stereo not shown) [Compound I-48]
16 | 100 to 1000 nM | ≥ 1000 nM | 10 to 30 ×10⁻⁶ cm/s | > 30 ×10⁻⁶ cm/s | 0.1 to 10 | c1ccc(C2CCCN2Cc2ncccc2-n2ccnc2)nc1 (stereo not shown) [Compound I-75]
17 | 100 to 1000 nM | ≥ 1000 nM | 0.1 to 10 ×10⁻⁶ cm/s | 10 to 30 ×10⁻⁶ cm/s | 0.1 to 10 | CN1CCN(c2cccc3[nH]c(CN4CCCC4c4nccn4C)nc23)CC1 (stereo not shown) [Compound I-51]
18 | 0.01 to 100 nM | 0.01 to 100 nM | 0.1 to 10 ×10⁻⁶ cm/s | > 30 ×10⁻⁶ cm/s | > 30 | Cc1cccnc1C1CCCN1Cc1ncccc1CC1CCN(C)CC1 (stereo not shown) [Compound I-117]
19 | 0.01 to 100 nM | 100 to 1000 nM | 0.1 to 10 ×10⁻⁶ cm/s | 10 to 30 ×10⁻⁶ cm/s | 0.1 to 10 | CN1CCN(c2c(CN3CCCC3c3ccccn3)nc3cccc(F)n23)CC1 (stereo not shown) [Compound I-64]
20 | 0.01 to 100 nM | 100 to 1000 nM | 10 to 30 ×10⁻⁶ cm/s | 10 to 30 ×10⁻⁶ cm/s | 0.1 to 10 | CN1CCN(c2c(CN3CCCC3c3ccccn3)nc3c(F)cccn23)CC1 (stereo not shown) [Compound I-61]
21 | 0.01 to 100 nM | 100 to 1000 nM | 0.1 to 10 ×10⁻⁶ cm/s | > 30 ×10⁻⁶ cm/s | 0.1 to 10 | CN1CCN(c2cccc3nc(C4CCCN4Cc4ccccn4)[nH]c23)CC1 (stereo not shown) [Compound I-104]
22 | 0.01 to 100 nM | 0.01 to 100 nM | 0.1 to 10 ×10⁻⁶ cm/s | 10 to 30 ×10⁻⁶ cm/s | 0.1 to 10 | Cc1cccnc1C1CCCN1Cc1nccn1CC1CCN(C)CC1 (stereo not shown) [Compound I-52]
23 | 0.01 to 100 nM | 0.01 to 100 nM | 0.1 to 10 ×10⁻⁶ cm/s | 10 to 30 ×10⁻⁶ cm/s | 10 to 30 | Cc1cccnc1C1CCCN1Cc1cn2c(N3CCN(C)CC3)cccc2n1 (stereo not shown) [Compound I-6, 5-(4-methylpiperazin-1-yl)-2-((2-(3-methylpyridin-2-yl)pyrrolidin-1-yl)methyl)imidazo[1,2-a]-pyridine]
24 | 0.01 to 100 nM | ≥ 1000 nM | 0.1 to 10 ×10⁻⁶ cm/s | 10 to 30 ×10⁻⁶ cm/s | 0.1 to 10 | Cc1cccnc1C1CCCN1Cc1ncccc1N1CCN(C)CC1 (stereo not shown) [Compound I-53]
25 | 0.01 to 100 nM | 0.01 to 100 nM | 0.1 to 10 ×10⁻⁶ cm/s | 10 to 30 ×10⁻⁶ cm/s | 0.1 to 10 | Cc1cccnc1C1CCCN1Cc1nccn1CC1CCN(C2CC2)CC1 (stereo not shown) [Compound I-107]
26 | 0.01 to 100 nM | 100 to 1000 nM | 0.1 to 10 ×10⁻⁶ cm/s | 10 to 30 ×10⁻⁶ cm/s | 0.1 to 10 | CN1CCN(c2cccc3nc(CN4CCCC4c4ncccc4Cl)cn23)CC1 (stereo not shown) [Compound I-27]
